Test results taken from PubChem BioAssay AID1918932 (Molecular Pharmacology Branch, DTP, NCI, 2023).
Values joined by “and” are separate entries in the source; they are usually repeats but may differ in a detail not shown here. Equal values may be shown once.

Test system: 171881-019-R-J1-PDC complex spheroid viability
Assay: Anticancer human tumor 171881-019-R-J1-PDC patient-derived invasive breast carcinoma cell line growth inhibition
Conditions: for viability, T/C: stronger effect = lower value
Outline: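 Complex spheroids of tumor cells with HUVEC and human MSCs, exposed to iadademstat combined with other agents. Each agent tested in half-log steps from near clinical Cmax (else 10 microM top), DMSO ≤0.25%.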

[1] = curve of first compound, second compound 0.1 µM
[2] = curve of first compound, second compound 0.316 µM
[3] = curve of first compound, second compound 1 µM
[4] = curve of first compound, second compound 3.16 µM
[5] = curve of first compound, second compound 10 µM
[6] = second compound 0.1 µM, first compound 0.0316 µM
[7] = second compound 0.1 µM, first compound 0.1 µM
[8] = second compound 0.316 µM, first compound 0.0316 µM
[9] = second compound 0.316 µM, first compound 0.1 µM
[10] = second compound 1 µM, first compound 0.0316 µM
[11] = second compound 1 µM, first compound 0.1 µM
[12] = second compound 3.16 µM, first compound 0.0316 µM
[13] = second compound 3.16 µM, first compound 0.1 µM
[14] = second compound 10 µM, first compound 0.0316 µM
[15] = second compound 10 µM, first compound 0.1 µM

CC(C)CC(NC(=O)CNC(=O)c1cc(Cl)ccc1Cl)B1OC(=O)CC(CC(=O)O)(C(=O)O)O1 (configuration not stated) + NC1CC1c1ccc(-c2cccc(O)c2)cc1
IC50 [1]: 0.885 nM | IC50 [2]: 1.06 nM | IC50 [3]: 0.719 nM | IC50 [4]: < 0.316 nM | IC50 [5]: < 0.316 nM | viability, T/C (second compound 0.1 µM, first compound 0.000316 µM): 95% | viability, T/C (second compound 0.1 µM, first compound 0.001 µM): 35.5% | viability, T/C (second compound 0.1 µM, first compound 0.00316 µM): 38.4% | viability, T/C (second compound 0.1 µM, first compound 0.01 µM): 23% | viability, T/C [6]: 5.32% | viability, T/C [7]: 15.9% | viability, T/C (second compound 0.316 µM, first compound 0.000316 µM): 91.9% | viability, T/C (second compound 0.316 µM, first compound 0.001 µM): 49.9% | viability, T/C (second compound 0.316 µM, first compound 0.00316 µM): 28.8% | viability, T/C (second compound 0.316 µM, first compound 0.01 µM): 24.4% | viability, T/C [8]: 13.9% | viability, T/C [9]: 11.5% | viability, T/C (second compound 1 µM, first compound 0.000316 µM): 76.5% | viability, T/C (second compound 1 µM, first compound 0.001 µM): 39.3% | viability, T/C (second compound 1 µM, first compound 0.00316 µM): 16.2% | viability, T/C (second compound 1 µM, first compound 0.01 µM): 8.02% | viability, T/C [10]: 11.6% | viability, T/C [11]: 5.3% | viability, T/C (second compound 3.16 µM, first compound 0.000316 µM): 43.9% | viability, T/C (second compound 3.16 µM, first compound 0.001 µM): 42.6% | viability, T/C (second compound 3.16 µM, first compound 0.00316 µM): 6.48% | viability, T/C (second compound 3.16 µM, first compound 0.01 µM): 6.09% | viability, T/C [12]: 12.3% | viability, T/C [13]: 12.9% | viability, T/C (second compound 10 µM, first compound 0.000316 µM): 19.6% | viability, T/C (second compound 10 µM, first compound 0.001 µM): 24.7% | viability, T/C (second compound 10 µM, first compound 0.00316 µM): 1.13% | viability, T/C (second compound 10 µM, first compound 0.01 µM): 4.15% | viability, T/C [14]: 4.16% | viability, T/C [15]: 4.12%

Nc1ccn(C2OC(CO)C(O)C2(F)F)c(=O)n1 (configuration not stated)
viability, T/C (compound 0.000949 µM): 73.3% and 67.7% | viability, T/C (compound 0.003 µM): 53.2% and 58.2% | viability, T/C (compound 0.00949 µM): 57.9% and 55.9% | viability, T/C (compound 0.03 µM): 62.1% and 61.5% | viability, T/C (compound 0.0949 µM): 64.6% and 63.9% | viability, T/C (compound 0.3 µM): 58.1% and 64.4% | IC50 (curve of compound): > 300 nM

CC1(C)CCC(CN2CCN(c3ccc(C(=O)NS(=O)(=O)c4ccc(NCC5CCOCC5)c([N+](=O)[O-])c4)c(Oc4cnc5[nH]ccc5c4)c3)CC2)=C(c2ccc(Cl)cc2)C1 + NC1CCC(NC2CC2c2ccccc2)CC1
IC50 [1]: 2210 nM | IC50 [2]: 2300 nM | IC50 [3]: 2110 nM | IC50 [4]: 1720 nM | IC50 [5]: 2010 nM | viability, T/C [6]: 71.9% | viability, T/C [7]: 92.7% | viability, T/C (second compound 0.1 µM, first compound 0.316 µM): 68.4% | viability, T/C (second compound 0.1 µM, first compound 1 µM): 67.2% | viability, T/C (second compound 0.1 µM, first compound 3.16 µM): 42.7% | viability, T/C (second compound 0.1 µM, first compound 10 µM): 2.57% | viability, T/C [8]: 79.3% | viability, T/C [9]: 83.8% | viability, T/C (second compound 0.316 µM, first compound 0.316 µM): 68.4% | viability, T/C (second compound 0.316 µM, first compound 1 µM): 66.9% | viability, T/C (second compound 0.316 µM, first compound 3.16 µM): 44.4% | viability, T/C (second compound 0.316 µM, first compound 10 µM): 2.71% | viability, T/C [10]: 88.7% | viability, T/C [11]: 89.3% | viability, T/C (second compound 1 µM, first compound 0.316 µM): 73.8% | viability, T/C (second compound 1 µM, first compound 1 µM): 74.3% | viability, T/C (second compound 1 µM, first compound 3.16 µM): 37.9% | viability, T/C (second compound 1 µM, first compound 10 µM): 7.6% | viability, T/C [12]: 79.6% | viability, T/C [13]: 74.9% | viability, T/C (second compound 3.16 µM, first compound 0.316 µM): 78.7% | viability, T/C (second compound 3.16 µM, first compound 1 µM): 61.4% | viability, T/C (second compound 3.16 µM, first compound 3.16 µM): 35.7% | viability, T/C (second compound 3.16 µM, first compound 10 µM): 3.1% | viability, T/C [14]: 91.3% | viability, T/C [15]: 95.5% | viability, T/C (second compound 10 µM, first compound 0.316 µM): 76% | viability, T/C (second compound 10 µM, first compound 1 µM): 67.5% | viability, T/C (second compound 10 µM, first compound 3.16 µM): 39.5% | viability, T/C (second compound 10 µM, first compound 10 µM): 2.78%

COc1cc(C2c3cc4c(cc3C(OC3OC5COC(C)OC5C(O)C3O)C3COC(=O)C23)OCO4)cc(OC)c1O (configuration not stated) + NC1CCC(NC2CC2c2ccccc2)CC1
IC50 [1]: 439 nM | IC50 [2]: 440 nM | IC50 [3]: 511 nM | IC50 [4]: 536 nM | IC50 [5]: 649 nM | viability, T/C (second compound 0.1 µM, first compound 0.00949 µM): 72.8% | viability, T/C (second compound 0.1 µM, first compound 0.03 µM): 90.8% | viability, T/C (second compound 0.1 µM, first compound 0.0949 µM): 87.9% | viability, T/C (second compound 0.1 µM, first compound 0.3 µM): 56.8% | viability, T/C (second compound 0.1 µM, first compound 0.949 µM): 33.2% | viability, T/C (second compound 0.1 µM, first compound 3 µM): 18.5% | viability, T/C (second compound 0.316 µM, first compound 0.00949 µM): 76.8% | viability, T/C (second compound 0.316 µM, first compound 0.03 µM): 98.2% | viability, T/C (second compound 0.316 µM, first compound 0.0949 µM): 94% | viability, T/C (second compound 0.316 µM, first compound 0.3 µM): 58.1% | viability, T/C (second compound 0.316 µM, first compound 0.949 µM): 33.1% | viability, T/C (second compound 0.316 µM, first compound 3 µM): 18.4% | viability, T/C (second compound 1 µM, first compound 0.00949 µM): 87.6% | viability, T/C (second compound 1 µM, first compound 0.03 µM): 87.8% | viability, T/C (second compound 1 µM, first compound 0.0949 µM): 86.5% | viability, T/C (second compound 1 µM, first compound 0.3 µM): 57.9% | viability, T/C (second compound 1 µM, first compound 0.949 µM): 39% | viability, T/C (second compound 1 µM, first compound 3 µM): 19.8% | viability, T/C (second compound 3.16 µM, first compound 0.00949 µM): 80.7% | viability, T/C (second compound 3.16 µM, first compound 0.03 µM): 99.1% | viability, T/C (second compound 3.16 µM, first compound 0.0949 µM): 96.4% | viability, T/C (second compound 3.16 µM, first compound 0.3 µM): 60.3% | viability, T/C (second compound 3.16 µM, first compound 0.949 µM): 40.8% | viability, T/C (second compound 3.16 µM, first compound 3 µM): 22.2% | viability, T/C (second compound 10 µM, first compound 0.00949 µM): 80.9% | viability, T/C (second compound 10 µM, first compound 0.03 µM): 104% | viability, T/C (second compound 10 µM, first compound 0.0949 µM): 95% | viability, T/C (second compound 10 µM, first compound 0.3 µM): 67.8% | viability, T/C (second compound 10 µM, first compound 0.949 µM): 42.5% | viability, T/C (second compound 10 µM, first compound 3 µM): 25.8%
